Values of other authors in publication PMC3993928 (Journal of Medicinal Chemistry, 2014).

Legend:
C57BL/6 mice = conditions: mouse WWTW
μ opioid receptor (MOPr) [1] = molecular target: T1, μ opioid receptor (MOPr) (Rattus norvegicus, UniProt P33535); conditions: read-out: Ki (nM) MOPr; [3H]diprenorphine displacement
κ opioid receptor (KOPr) [2] = molecular target: T2, κ opioid receptor (KOPr) (Homo sapiens, UniProt P41145); conditions: relative to U69,593 at 10 μM; dns = does not stimulate
μ opioid receptor (MOPr) [3] = molecular target: T1, μ opioid receptor (MOPr); conditions: read-out: EC50 (nM), MOPr; [35S]GTPγS binding
δ opioid receptor (DOPr) [4] = molecular target: T3, δ opioid receptor (DOPr) (Rattus norvegicus, UniProt P33533); conditions: relative to DPDPE at 10 μM; dns = does not stimulate
T3 sequence (P33533 whole entry): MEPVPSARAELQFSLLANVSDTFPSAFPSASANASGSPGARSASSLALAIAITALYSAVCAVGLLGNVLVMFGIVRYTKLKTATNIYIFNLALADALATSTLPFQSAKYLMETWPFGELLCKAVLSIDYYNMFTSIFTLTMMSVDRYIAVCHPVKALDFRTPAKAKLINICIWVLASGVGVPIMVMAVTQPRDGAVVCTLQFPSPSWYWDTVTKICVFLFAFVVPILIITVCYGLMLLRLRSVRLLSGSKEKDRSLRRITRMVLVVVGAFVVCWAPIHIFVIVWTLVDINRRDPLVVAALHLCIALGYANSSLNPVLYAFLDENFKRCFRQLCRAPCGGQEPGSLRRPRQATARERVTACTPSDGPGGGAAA

κ opioid receptor (KOPr) [5] = molecular target: T2, κ opioid receptor (KOPr); conditions: read-out: Ki (nM) KOPr; [3H]diprenorphine displacement
δ opioid receptor (DOPr) [6] = molecular target: T3, δ opioid receptor (DOPr); conditions: read-out: Ki (nM) DOPr; [3H]diprenorphine displacement

T2 sequence (P41145 whole entry): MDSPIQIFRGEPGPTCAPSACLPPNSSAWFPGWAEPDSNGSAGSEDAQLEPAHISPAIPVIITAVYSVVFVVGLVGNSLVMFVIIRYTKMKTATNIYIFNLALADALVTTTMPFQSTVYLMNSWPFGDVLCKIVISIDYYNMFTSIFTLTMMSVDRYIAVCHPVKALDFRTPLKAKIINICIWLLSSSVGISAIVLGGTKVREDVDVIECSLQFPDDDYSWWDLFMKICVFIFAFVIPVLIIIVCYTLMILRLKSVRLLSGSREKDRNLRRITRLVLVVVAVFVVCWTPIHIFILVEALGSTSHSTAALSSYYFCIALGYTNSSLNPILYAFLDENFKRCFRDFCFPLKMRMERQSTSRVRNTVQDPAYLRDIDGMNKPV
T1 sequence (P33535 whole entry): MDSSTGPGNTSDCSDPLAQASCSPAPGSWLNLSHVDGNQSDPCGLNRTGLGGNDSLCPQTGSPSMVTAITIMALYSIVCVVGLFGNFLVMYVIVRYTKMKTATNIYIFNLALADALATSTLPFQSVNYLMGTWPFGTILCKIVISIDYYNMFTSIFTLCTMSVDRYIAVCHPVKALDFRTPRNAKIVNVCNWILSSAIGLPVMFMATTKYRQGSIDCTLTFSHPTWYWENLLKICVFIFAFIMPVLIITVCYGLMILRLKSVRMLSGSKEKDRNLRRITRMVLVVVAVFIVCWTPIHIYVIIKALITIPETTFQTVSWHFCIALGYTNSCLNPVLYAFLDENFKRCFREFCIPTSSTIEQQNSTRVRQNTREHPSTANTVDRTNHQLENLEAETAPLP

CN1CC[C@]23c4c5ccc(O)c4O[C@H]2[C@@H](O)C=C[C@H]3[C@H]1C5 [morphine]
duration of antinociceptive action relative to 4 (fold longer) (C57BL/6 mice): approximately 2 fold

Dmt-c(SEtS)[DCys-Aci-DPen]OH [compound 1]
Ki (μ opioid receptor (MOPr) [1]): 2.4 ± 0.7 nM | efficacy (% of control), KOPr (κ opioid receptor (KOPr) [2]): dns | EC50 (μ opioid receptor (MOPr) [3]): 4.7 ± 0.7 nM | efficacy (% of control), DOPr (δ opioid receptor (DOPr) [4]): dns | Ki (κ opioid receptor (KOPr) [5]): 776 ± 149 nM | Ki (δ opioid receptor (DOPr) [6]): 2.3 ± 0.5 nM
